These results are taken from patent US20250145627A1, “METTL3 Inhibitor and Composition, and Application of Same in Medicine” (XIZANG HAISCO PHARMACEUTICAL CO., LTD., priority 2022, published 2025).

SMILES strings stand for the structures. Read-outs that look alike come from different tables or passages of the source.

For series [1], the system named is MOLM-13 cells. Briefly: Cell proliferation test on MOLM-13 cells (Cellriter-Glo). Type of series: cell-based. The settings on record: Homo sapiens. The procedure:
Cell plating: Cells were plated when they grow to a logarithmic growth phase. The cells were collected and the cell density was adjusted to 6×10^4 cells/mL; then the cell suspension is then poured into a loading slot and added into a 96-well cell culture plate at 50 μL/well (3000 cells/well viable cells). Note: the cells in the loading slot were well mixed while plating; cell information and plating date were labeled on the 96-well plates. NC wells (control wells) and BG wells (background wells) were provided. […] 50 μL/well of the compounds were added to the 96-well plate in which the cells were already plated. Incubation was carried out at 37° C., 5% CO2 for a period of time. Cell proliferation test: After incubation in the incubator for a period of time, 50 μL of […]-Glo Reagent per well was added. The plate was shaken at room temperature (500 rpm), incubated for 10 min in the dark, and then the […] was measured with a microplate reader. The mean background value was calculated. [formula] […] Specific data were presented in the form of graphs.

Series [2] in a line: Pharmacokinetic test in mice. It counts as in vivo. The settings on record: male C57 mice, plasma. The method, then: • 2.1 Experimental animals: male C57 mice, 18-20 g, 6 mice/compound or 12 mice/compound. • 2.2 Experimental design: the C57 mice were randomly grouped according to their body weights. The animals were fasted with water available for 12 to 14 h one day before the administration, and were fed 4 h after the administration.
Vehicle for intravenous administration: 5% DMA+5% Solutol+90% Saline; vehicle for intragastric administration: 0.5% MC; • (DMA: dimethylacetamide; Solutol: polyethylene glycol-15-hydroxystearate; Saline: physiological saline; MC: Methyl cellulose solution)
Before and after the administration, 0.06 mL of blood was taken from the orbit of the animals under isoflurane anesthesia and placed in an EDTAK2 centrifuge tube. The blood was centrifuged at 5000 rpm and 4° C. for 10 min to collect the plasma. The blood collection time points for the intravenous administration group and intragastric administration group were 0 min, 5 min, 15 min, 30 min, 1 h, 2 h, 4 h, 7 h and 24 h. Before analysis and detection, all samples were stored at −80° C.

In series [3] the target is T1, hERG potassium ion channel (Homo sapiens, UniProt Q12809).
T1 construct: expressed in transfected cells
T1 sequence (Q12809 whole entry): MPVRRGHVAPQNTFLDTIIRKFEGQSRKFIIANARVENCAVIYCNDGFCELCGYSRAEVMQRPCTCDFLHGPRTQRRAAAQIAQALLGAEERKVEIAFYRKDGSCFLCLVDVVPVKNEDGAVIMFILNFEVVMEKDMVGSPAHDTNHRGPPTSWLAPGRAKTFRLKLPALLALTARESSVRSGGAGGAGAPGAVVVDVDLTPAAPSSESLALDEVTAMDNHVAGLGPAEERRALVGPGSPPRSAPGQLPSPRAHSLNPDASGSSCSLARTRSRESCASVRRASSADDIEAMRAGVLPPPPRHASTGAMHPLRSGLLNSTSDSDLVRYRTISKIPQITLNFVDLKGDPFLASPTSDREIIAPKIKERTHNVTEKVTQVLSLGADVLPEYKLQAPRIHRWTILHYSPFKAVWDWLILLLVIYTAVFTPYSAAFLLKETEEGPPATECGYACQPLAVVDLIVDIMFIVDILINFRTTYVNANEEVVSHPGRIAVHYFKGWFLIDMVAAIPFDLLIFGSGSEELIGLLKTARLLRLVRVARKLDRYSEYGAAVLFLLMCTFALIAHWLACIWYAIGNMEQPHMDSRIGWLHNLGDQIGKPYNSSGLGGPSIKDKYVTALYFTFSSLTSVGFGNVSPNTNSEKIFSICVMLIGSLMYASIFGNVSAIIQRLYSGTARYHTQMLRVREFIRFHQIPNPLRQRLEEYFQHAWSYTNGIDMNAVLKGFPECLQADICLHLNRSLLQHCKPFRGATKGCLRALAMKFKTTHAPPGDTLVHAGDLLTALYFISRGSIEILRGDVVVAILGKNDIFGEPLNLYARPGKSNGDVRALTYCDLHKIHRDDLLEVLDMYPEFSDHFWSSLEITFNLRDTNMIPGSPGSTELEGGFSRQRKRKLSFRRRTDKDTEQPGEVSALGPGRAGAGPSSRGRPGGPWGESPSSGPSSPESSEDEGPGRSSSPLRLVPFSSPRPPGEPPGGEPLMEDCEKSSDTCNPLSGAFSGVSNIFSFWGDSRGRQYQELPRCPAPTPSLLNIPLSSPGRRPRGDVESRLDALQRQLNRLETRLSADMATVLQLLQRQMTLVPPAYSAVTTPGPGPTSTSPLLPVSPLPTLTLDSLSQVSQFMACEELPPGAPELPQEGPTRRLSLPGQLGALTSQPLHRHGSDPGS
Briefly: Test for hERG potassium ion channel (manual patch-clamp, CHO cells). It counts as cell-based. To be noted: CHO cells stably expressing hERG, whole cell patch-clamp, room temperature; read-out: IC50 for the inhibitory effect on hERG potassium channel current. The text has this:
Experimental platform: electrophysiological manual patch-clamp system Cell line: Chinese hamster ovary (CHO) cell lines stably expressing hERG potassium ion channel
Experimental method: in CHO (Chinese Hamster Ovary) cells stably expressing hERG potassium channel, whole cell patch-clamp technique was used to record hERG potassium channel current at room temperature. The glass microelectrode was made of a glass electrode blank (BF150-86-10, Sutter) by a puller. The tip resistance after filling the liquid in the electrode was about 2-5 MO. The glass microelectrode can be connected to the patch-clamp amplifier by inserting the glass microelectrode into an amplifier probe. The clamping voltage and data recording were controlled and recorded by the pClamp 10 software through a computer. The sampling frequency was 10 kHz, and the filtering frequency was 2 kHz. […]
Data processing: Data analysis processing was carried out by using pClamp 10, GraphPad Prism 5 and Excel software. The inhibition degree of hERG potassium current (peak value of hERG tail current induced at −50 mV) at different compound concentrations was calculated by the following formula: […]
Compound IC50 was calculated using GraphPad Prism 5 software by fitting according to the following equation: […]

Where [4] appears, read: MOLM-13 cells, maximum detection concentration 10 μM, read-out: IC50 of compounds on MOLM-13 cells.
The mark [5] stands for this setting: MOLM-13, read-out: IC50 on MOLM-13 cells.

In the case of `O=C(NCc1cc2[nH]c(CNCC3CCC3)cc2s1)c1cc(=O)n2cccc(F)c2n1` [Compound 18], the IC50 (commonly the concentration at which inhibition is half-maximal) in series [1] (setting [4]) was in the range of 2000 to 10000 nM. As to `Cn1ccn2c(=O)cc(C(=O)NCc3ccc4cc(CNCC56CC(F)(C5)C6)[nH]c4c3)nc12` [Compound 3], the IC50 in series [1] (setting [5]) was 230 nM; in series [1] (setting [4]), under 2000 nM. Consider `[2H]C([2H])([2H])n1ccn2c(=O)cc(C(=O)NCc3ccc4cc(CNCC56CC(F)(C5)C6)[nH]c4c3)nc12` [Compound 4], for which the IC50 in series [1] (setting [5]) is 160 nM; in series [1] (setting [4]), under 2000 nM. For `CC(C)n1ccn2c(=O)cc(C(=O)NCc3ccc4cc(CNCC5CCC5)[nH]c4c3)nc12` [Trifluoroacetate of compound 6], the IC50 in series [1] (setting [4]) was in the range of 2000 to 10000 nM. With `O=C(NCc1ccc2cc(CNCC3CCC3)[nH]c2c1)c1cc(=O)n2cc[nH]c2n1` [Trifluoroacetate of compound 2], the IC50 in series [1] (setting [4]) was in the range of 2000 to 10000 nM.

Turning to `CC(C)(C)CNCc1cc2sc(CNC(=O)c3cc(=O)n4ccccc4n3)cc2[nH]1` [Compound 22], the IC50 in series [1] (setting [4]) is 2000 to 10000 nM.

`O=C(NCc1ccc2cc(CNCC34CC(F)(C3)C4)[nH]c2c1)c1cc(=O)n2ccccc2n1` [Compound 23 in WO 2021111124] gave a F in series [2] (i.g. 10 mg/kg) of 31.6%. The AUC(0-t) (usually the area under the concentration-time curve up to a stated or last time point) in series [2] (mouse, iv, i.v. 2.5 mg/kg) was 730 ng·h/mL; in series [2] (mouse, po, i.g. 10 mg/kg) it was 923 ng·h/mL. In addition, the clearance (in general, the rate of elimination divided by the concentration) in series [2] (mouse, iv, i.v. 2.5 mg/kg) was found to be 57 mL/min/kg. Further, the Vd in series [2] (mouse, iv, i.v. 2.5 mg/kg, read-out: Vdss) is 2.21 L/kg.

Turning to `O=C(NCc1ccc2cc(CNCC3CCC3)[nH]c2c1)c1cc(=O)n2ccn(CC3CC3)c2n1` [Trifluoroacetate of compound 5], the half-inhibitory concentration (IC50) in series [1] (setting [4]) lay in the range of 2000 to 10000 nM. For `O=C(NCc1cc2[nH]c(CNCC3CCC3)cc2s1)c1cc(=O)n2ccccc2n1` [Trifluoroacetate of compound 12], the IC50 is under 2000 nM in series [1] (setting [4]) and over 30000 nM in series [3].

As to `CCn1ccn2c(=O)cc(C(=O)NCc3ccc4cc(CNCC56CC(F)(C5)C6)[nH]c4c3)nc12` [Trifluoroacetate of compound 8], the 50% inhibitory concentration (IC50) in series [1] (MOLM-13, read-out: IC50 of compounds on MOLM-13 cells) is under 2000 nM.

As for `O=C(NCc1ccc2cc(CNCC3CCC3)[nH]c2c1)c1cc(=O)n2ccn(C3CC3)c2n1` [Trifluoroacetate of compound 11], the IC50 in series [1] (setting [4]) fell in the range of 2000 to 10000 nM. For `Cn1ccn2c(=O)cc(C(=O)NCc3ccc4cc(CNCC5CCC5)[nH]c4c3)nc12` [Trifluoroacetate of compound 1], the half-inhibitory concentration (IC50) in series [1] (setting [4]) is under 2000 nM. Regarding `C#CCn1ccn2c(=O)cc(C(=O)NCc3ccc4cc(CNCC5CCC5)[nH]c4c3)nc12` [Trifluoroacetate of compound 10], in series [1] (setting [4]), the IC50 is under 2000 nM. `O=C(NCc1cc2[nH]c(CNCC3CCC3)cc2s1)c1cc(=O)n2ccc(C3CC3)cc2n1` [Trifluoroacetate of compound 17]: the IC50 in series [1] (setting [4]) lay within 2000 to 10000 nM. `CCn1ccn2c(=O)cc(C(=O)NCc3ccc4cc(CNCC5CCC5)[nH]c4c3)nc12` [Trifluoroacetate of compound 9]: the IC50 in series [1] (setting [4]) was 2000 to 10000 nM. For `O=C(NCc1cc2[nH]c(CNCC34CC(F)(C3)C4)cc2s1)c1cc(=O)n2ccn(C(F)F)c2n1` [Trifluoroacetate of compound 14], the IC50 in series [1] (setting [4]) fell in the range of 2000 to 10000 nM. Regarding `O=C(NCc1cc2[nH]c(CNCC3CCC3)cc2s1)c1cc(=O)n2cc(F)ccc2n1` [Trifluoroacetate of compound 16], the 50% inhibitory concentration (IC50) in series [1] (setting [4]) fell in the range of 2000 to 10000 nM. `O=C(NCc1cc2[nH]c(CNC3CCCCC3)cc2s1)c1cc(=O)n2ccccc2n1` [Compound 20]: the IC50 in series [1] (setting [4]) was 2000 to 10000 nM.
